Test system: TOP10 Escherichia coli cells
Format: cell-based
Conditions: 100 mM maltose; SP biosensor with No Sites or Go66 reporter
Protocol: All experiments were conducted in TOP10 Escherichia coli cells (F-mcrA Δ(mrr-hsdRMS-mcrBC) φ80lacZAM15 ΔlacX74 nupG recAl araD139 Δ(ara-leu)7697 galE15 galK16 rpsL(Str^R) endA1 λ^−) (Life Technologies). Cells were maintained in Lysogeny Broth (LB) Lennox formulation (10 g/L of tryptone, 5 g/L of yeast extract, 5 g/L of NaCl) supplemented with appropriate antibiotics (Ampicillin 100 μg/mL or Kanamycin 50 μg/mL). All experimental analysis was conducted in M9 minimal media (1×M9 salts, 0.2% Casamino Acids, 2 mM MgSO^4, 0.1 mM CaCl^2, 1 mM Thiamine HCl) containing glycerol (0.4%) as the primary carbon source. 1% arabinose and variable amounts of maltose monohydrate and isopropyl β-D-1-thiogalactopyranoside (IPTG) were added as indicated. M9 medium containing both Ampicillin and Kanamycin was used to maintain the strains that contained both a reporter plasmid and a biosensor plasmid.
Cultures were inoculated from single colonies into 2 mL of M9 media and grown overnight to stationary phase. Overnight cultures were diluted 1:20 and grown into exponential phase (OD600˜0.5). […] Plates with lids were incubated and shaken in a continuous double orbital pattern at 548 cpm (2 mm) inside a BioTek Synergy H1 plate reader for 10 h with GFP, mCherry, and OD600 measurements taken every 15 min. […]

## OC[C@H]1O[C@H](O[C@H]2[C@H](O)[C@@H](O)C(O)O[C@@H]2CO)[C@H](O)[C@@H](O)[C@@H]1O (mixture of isomers) [maltose]
  impact on cell growth: did not substantially impact cell growth
